From US20260327240A1, “1,4-CINEOLE DERIVATIVE AND INTERMEDIATE THEREOF, HERBICIDE CONTAINING SAID DERIVATIVE AS ACTIVE INGREDIENT, METHOD FOR USING HERBICIDE, AND METHOD FOR PREPARING AGROCHEMICAL COMPOSITION” (HOKKO CHEMICAL INDUSTRY CO., LTD., priority 2023, published 2026)

Legend:
Format in all cases: in vivo
Digitaria ciliaris = assay: Test Example 3: herbicidal effect test by soil application in upland field; settings: Digitaria ciliaris, 1 day after sowing, 120 g per 10 ares, 14 days after application, read-out: weed inhibition rate
Summary of the method: (§1)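 Twenty seeds per weed species were mixed into the top 1 cm of alluvial loam in pots. One day after sowing, an emulsifiable concentrate diluted in water was sprayed on the soil surface at 120 g active ingredient per 10 ares.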

Echinochloa crus-galli [1] = assay: as above; settings: Echinochloa crus-galli, 1 day after sowing, 120 g per 10 ares, 14 days after application, read-out: weed inhibition rate
Summary of the method: as §1

[2] = system: Echinochloa crus-galli var. formosensis; assay: Test Example 5: herbicidal effect test by soil application in paddy rice; settings: Echinochloa crus-galli, 336 h, 7.5 g per 10 ares, 14 days after application, read-out: weed inhibition rate
Method: Herbicidal Effect Test by Soil Application in Paddy Rice
Wagner pots with an area of […] were filled with paddy soil, followed by addition of water and incorporation of chemical fertilizer (N:P:K=16:16:16), after which puddling was performed. After that, seeds of Echinochloa crus-galli var. formosensis, broad-leaved weeds (Lindemia pyxidaria, and Monochoria vaginalis), and Scirpus juncoides were sown at a depth of 0 cm to 1 cm, 30 seeds each. Immediately after sowing, the pots were flooded and a water depth of approximately 3 cm was maintained. Subsequent management was conducted in a glass greenhouse. Immediately thereafter, an emulsifiable concentrate prepared according to Formulation Example 5 using the compound shown below was diluted with water, and a specified amount of the diluted solution was applied by dropper. The amount of the active ingredient to be applied was equivalent to 7.5 g per 10 ares.
The present test was conducted in duplicate for each chemical concentration group, and the herbicidal effect was evaluated 14 days after chemical application using the same criteria as in Test Example 1.

Echinochloa crus-galli [3] = assay: Test Example 8: herbicidal effect test by stem and leaf treatment in upland field; settings: Echinochloa crus-galli, 7 days after sowing, 7.5 g per 10 ares, 14 days after application, read-out: weed inhibition rate
Method: Herbicidal Effect Test by Stem and Leaf Treatment in Upland Field
Pots with an area of 36 cm^2 were filled with upland soil (alluvial loam), twenty seeds each of weeds of Digitaria ciliaris, Echinochloa crus-galli, Chenopodium album, and Amaranthus viridis were uniformly mixed with the top 1 cm layer of soil and the surface was lightly pressed down. Seven days after sowing, an emulsifiable concentrate prepared according to Formulation Example 5 using the compound shown below was diluted with water, and the diluted solution was sprayed onto the soil surface at a rate of 100 liters per 10 ares. The amount of the active ingredient to be applied was equivalent to 7.5 g per 10 ares. Fourteen days after chemical application, the herbicidal effect was evaluated according to the same criteria as in Test Example 1.

CCOC(C)O[C@H]1C[C@]2(C)O[C@@]1(C(C)C)C[C@H]2OCc1ccccc1F (stereo partly drawn) [1-213, (1R,2S,4S,5R)-2-(1-ethoxyethoxy)-5-((2-fluorobenzyl)oxy)-1-isopropyl-4-methyl-7-oxabicyclo[2.2.1]heptane]
≥ 80%: inhibition at 1200 g/ha (Digitaria ciliaris) | inhibition at 1200 g/ha (Echinochloa crus-galli [1]) | inhibition at 75 g/ha [2] | inhibition at 75 g/ha (Echinochloa crus-galli [3])
